Test results: article PMC2957295 (Biochemistry, 2010)

Target: T1, Fas (Homo sapiens, UniProt P25445)
T1 sequence (P25445 26-335): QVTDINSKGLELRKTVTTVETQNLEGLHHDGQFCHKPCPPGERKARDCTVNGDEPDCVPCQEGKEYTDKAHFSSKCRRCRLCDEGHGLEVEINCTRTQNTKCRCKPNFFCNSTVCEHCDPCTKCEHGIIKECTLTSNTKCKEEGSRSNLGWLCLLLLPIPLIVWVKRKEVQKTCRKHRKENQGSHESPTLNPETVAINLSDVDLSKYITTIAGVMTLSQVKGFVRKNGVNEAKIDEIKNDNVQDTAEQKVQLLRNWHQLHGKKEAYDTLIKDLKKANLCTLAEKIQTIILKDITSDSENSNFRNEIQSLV
Assay: anti-Fas immunoprecipitation of treated cells, Western blot for 4-HNE adduct
Format: cell-based
Conditions: covalent; HepG2 cells, 20 µM 4-HNE, 2 h

CCCCCC(O)/C=C/C=O (stereo not shown) [4-hydroxy-2-nonenal] was tested, and the 4-HNE-Fas adduct was “shows the presence of Daxx and 4-HNE-Fas adduct”.
